Consider 22 compounds from US5025099A, “(3-amino-1-propynyl)methylthiothiophene derivatives” (American Cyanamid Company, priority 1990, dated 1991).

Molecules are shown by their SMILES. Several values for one entry are separate records, joined by “and”; a condition that tells them apart may be missing. Equal entries are not always repeated. Structures can show the parent of a compound that is named as a salt.

Assay [1] addresses muscarinic cholinergic receptor. Briefly: [^3 H] Quinuclidinyl Benzilate (^3 H-QNB) Binding Assay, rat cerebral cortex homogenate. The following applies: pH 7.4.
Assay [2] has the same target. The assay is described as follows: [^3 H]-Cis-methyldioxolane (^3 H-CD) Binding Assay (High Affinity), rat cerebral cortex homogenate. As to conditions: 1.0 nM ^3 H-CD, 25° C., 120 minutes.
Assay [3] concerns SDAT patients. The following applies: compared to the anticholinesterase inhibitor physostigmine; cited from earlier work.
In assay [4] the test system is muscarinic sites. As to conditions: cited from earlier work.
The mark [5] stands for this setting: rat cerebral cortex, 0.25 nM ^3 H-QNB, 25° C., hydrochloride.
Where [6] appears, read: rat cerebral cortex, 0.25 nM ^3 H-QNB, 25° C.

In the case of `CSc1sccc1C#CCN(C)C` [N,N-Dimethyl-3-[2-(methylthio)-3-thienyl]-2-propyn-1-amine, hydrochloride], the IC50 (as a rule, the midpoint of a concentration-inhibition curve) was 23300 nM in assay [1] (setting [5]) and 969 nM in assay [2] (pH 7.4, hydrochloride).
For the compound `CSc1ccsc1C#CCN1CCCCC1` [1-[3-[3-(Methylthio)-2-thienyl]-2-propynyl]piperidine], the values for the IC50 in assay [1] (setting [6]) and in assay [2] (pH 7.4) were 1970 nM and 122 nM, respectively.
On to `CSc1ccsc1C#CCN1CCCCC1` [1-[3-[3-(Methylthio)-2-thienyl]-2-propynyl]piperidine, hydrochloride], for which the concentration for half-maximal inhibition (IC50) in assay [1] (setting [5]) turned out to be 2100 nM; in assay [2] (pH 7.4, hydrochloride) it was 44 nM.
Turning to `COC(=O)C1=CCCN(C)C1` [arecoline], the “improvement in SDAT patients” value in assay [3] was “more-consistent improvement”.
For `CSc1ccsc1C#CC[N+](C)(C)C` [N,N,N-Trimethyl-3-[3-(methylthio)-2-thienyl]-2-propyn-1-aminium, iodide], the IC50 was 5980 nM in assay [1] (setting [6]) and 5.92 nM in assay [2] (pH 7.4).
For the compound `CSc1sccc1C#CCN1CCCCC1` [1-[3-[2-(Methylthio)-3-thienyl]-2-propynyl]piperidine], the 50% inhibitory concentration (IC50) in assay [1] (setting [6]) was determined as 1140 nM; in assay [2] (pH 7.4) it was 31.1 nM.
`CSc1cscc1C#CCN1CCCC1` [1-[3-[4-(Methylthio)-3-thienyl]-2-propynyl]pyrrolidine, hydrochloride]: the half-maximal inhibitory concentration (IC50) in assay [1] (setting [5]) was 2270 nM; in assay [2] (pH 7.4, hydrochloride), 110 nM.
On the same counts, the results for `CSc1ccsc1C#CCN(C)C` [N,N-Dimethyl-3-[3-(methylthio)-2-thienyl]-2-propyn-1-amine, hydrochloride] are 40400 nM and 1240 nM.
As to `CSc1cscc1C#CCN1CCCC1` [1-[3-[4-(Methylthio)-3-thienyl]-2-propynyl]pyrrolidine], the IC50 in assay [1] (setting [6]) stood at 3340 nM; in assay [2] (pH 7.4), 366 nM.
On the same counts, the results for `CSc1sccc1C#CCN1CCCC1` [1-[3-[2-(Methylthio)-3-thienyl]-2-propynyl]pyrrolidine] are 920 nM and 31 nM.
As for `CSc1ccsc1C#CCN(C)C` [N,N-Dimethyl-3-[3-(methylthio)-2-thienyl]-2-propyn-1-amine], the IC50 is 35000 nM in assay [1] (setting [6]) and 1120 nM in assay [2] (pH 7.4).
On the same counts, the results for `CSc1cscc1C#CCN(C)C` [N,N-Dimethyl-3-[4-(methylthio)-3-thienyl]-2-propyn-1-amine] are 239000 nM and 4830 nM.
Regarding `CSc1sccc1C#CCN1CCCCC1` [1-[3-[2-(Methylthio)-3-thienyl]-2-propynyl]piperidine, hydrochloride], the IC50 in assay [1] (setting [5]) stood at 2200 nM; in assay [2] (pH 7.4, hydrochloride), 32.5 nM.
In the case of `CSc1sccc1C#CCN1CCCC1` [1-[3-[2-(Methylthio)-3-thienyl]-2-propynyl]pyrrolidine, hydrochloride], the half-inhibitory concentration (IC50) in assay [1] (setting [5]) worked out at 810 nM.
Turning to `CSc1ccsc1C#CCN1CCCC1` [1-[3-[3-(Methylthio)-2-thienyl]-2-propynyl]pyrrolidine], the IC50 in assay [1] (setting [6]) came out at 1380 nM; in assay [2] (pH 7.4), 16 nM.
Turning to `CSc1sccc1C#CCN(C)C` [N,N-Dimethyl-3-[2-(methylthio)-3-thienyl]-2-propyn-1-amine], the results for the half-inhibitory concentration (IC50) in assay [1] (setting [6]) and in assay [2] (pH 7.4) were 21400 nM and 942 nM, respectively.
For the compound `CC(=O)N(C)C(C)C#CCN1CCCC1` (stereo not shown) [BM-5, N-methyl-N-(1-methyl-4-pyrrolidino-2-butynyl)acetamide], the “activity at muscarinic sites” value in assay [4] (Eur. J. Med. Chem., 1982, 17, 317) is reported as “antagonist at some muscarinic sites while being an agonist at most others”. Besides, in assay [4] (postsynaptic), the postsynaptic cholinergic activity result was “postsynaptic partial cholinergic agonist”. The presynaptic cholinergic activity entry in assay [4] (presynaptic) is given as “presynaptic cholinergic antagonist”.
`CSc1ccsc1C#CCN1CCCC1` [1-[3-[3-(Methylthio)-2-thienyl]-2-propynyl]pyrrolidine, hydrochloride]: the 50% inhibitory concentration (IC50) in assay [1] (setting [5]) amounted to 1870 nM; in assay [2] (pH 7.4, hydrochloride), 44 nM.
Take `CSc1sccc1C#CC[N+](C)(C)C` [N,N,N-Trimethyl-3-[2-(methylthio)-3-thienyl]-2-propyn-1-aminium, iodide]: the IC50 in assay [1] (setting [6]) worked out at 3440 nM; in assay [2] (pH 7.4), 52.3 nM.
With `CSc1cscc1C#CCN(C)C` [N,N-Dimethyl-3-[4-(methylthio)-3-thienyl]-2-propyn-1-amine, hydrochloride], the 50% inhibitory concentration (IC50) in assay [1] (setting [5]) amounted to 67500 nM; in assay [2] (pH 7.4, hydrochloride), 1230 nM.
Turning to `CSc1cscc1C#CC[N+](C)(C)C` [N,N,N-Trimethyl-3-[4-(methylthio)-3-thienyl]-2-propyn-1-aminium, iodide], the IC50 in assay [1] stood at 9050 nM; in assay [2] (pH 7.4), 121 nM.
With `CSc1cscc1C#CCN1CCCCC1` [1-[3-[4-(Methylthio)-3-thienyl]-2-propynyl]piperidine], the IC50 in assay [1] (setting [6]) was 5350 nM and 5880 nM; in assay [2] (pH 7.4) it was 998 nM and 530 nM.
